Data: patent US6849653B2, “Substituted pyrazolyl benzenesulfamide compounds for the treatment of inflammation” (Pharmacia Corporation, priority 2001, dated 2005)

Each compound was assayed against T1, IKK2 (IKKβ), rhIKK2 homodimer (Homo sapiens, UniProt O14920) (assay: IKKβ (IKK2) Resin Enzyme Assay). Conditions: Table 2; values given as bins; read-out: IKK2 Resin IC 50.
T1 construct: made in house; host or cells: insect cells (baculovirus; SF9)
T1 sequence (O14920 1-756): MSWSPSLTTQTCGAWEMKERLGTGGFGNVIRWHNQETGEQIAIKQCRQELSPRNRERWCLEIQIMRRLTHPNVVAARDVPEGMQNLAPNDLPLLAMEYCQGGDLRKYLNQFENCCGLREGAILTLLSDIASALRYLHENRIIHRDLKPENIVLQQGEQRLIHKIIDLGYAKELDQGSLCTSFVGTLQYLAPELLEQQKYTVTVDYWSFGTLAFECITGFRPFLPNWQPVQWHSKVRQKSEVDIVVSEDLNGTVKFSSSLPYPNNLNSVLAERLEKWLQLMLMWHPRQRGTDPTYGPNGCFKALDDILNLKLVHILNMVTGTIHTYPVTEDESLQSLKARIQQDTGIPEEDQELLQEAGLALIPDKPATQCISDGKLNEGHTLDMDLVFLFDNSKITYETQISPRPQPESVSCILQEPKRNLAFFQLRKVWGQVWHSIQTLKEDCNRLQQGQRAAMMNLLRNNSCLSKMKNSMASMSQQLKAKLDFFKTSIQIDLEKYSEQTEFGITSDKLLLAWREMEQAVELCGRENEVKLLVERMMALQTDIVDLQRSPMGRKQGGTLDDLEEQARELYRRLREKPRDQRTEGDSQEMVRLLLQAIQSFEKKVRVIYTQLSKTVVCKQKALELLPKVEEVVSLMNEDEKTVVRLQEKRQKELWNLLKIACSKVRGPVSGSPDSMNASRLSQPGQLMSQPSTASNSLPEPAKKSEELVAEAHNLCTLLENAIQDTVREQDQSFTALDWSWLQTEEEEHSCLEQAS
Assay type: biochemical
Text: (§1) cDNAs of human IKK1 and IKK2 were amplified by reverse transcriptase-polymerase chain reaction from human placental RNA (Clonetech). hIKK1 was subcloned into pFastBac HTa (Life Technologies) and expressed as N-terminal His6-tagged fusion protein. The hIKK2 cDNA was amplified using a reverse oligonucleotide primer which incorporated the peptide sequence for a FLAG-epitope tag at the C-terminus of the IKK2 coding region (DYKDDDDKD). The hIKK2:FLAG cDNA was subcloned into the baculovirus vector pFastBac. The rhIKK2 ([…]) mutant was constructed in the same vector used for wild type rhIKK2 using a QuikChange™ mutagenesis kit (Stratagene). Viral stocks of each construct were used to infect insect cells grown in 40L suspension culture. […] Cell lysates were stored at −80° C. until purification of the recombinant proteins was undertaken as described below.
Isolation of rhIKK2 Homodimer
A 10 liter culture of baculovirus-expressing IKK2 tagged with FLAG peptide was centrifuged and the cell pellet (MOI=0.1 and I=72 hrs) was re-suspended in buffer A. These cells were microfluidized, and centrifuged at 100,000×g for 45 min. Supernatant was passed over a G-25 column equilibrated with Buffer A. Protein peak was collected and incubated with anti-FLAG affinity resin on a rotator overnight in buffer B. The resin was washed in batch with 10-15 bed volumes of buffer C. Washed resin was poured into a column and rhIKK2 homodimer was eluted using 5 bed volumes of buffer B containing FLAG peptide. 5 mM DTT, 0.1% NP-40 and BSA (concentrated to 0.1% in final amount) was added to the eluted enzyme before concentrating in using an Amicon membrane with a molecular weight cut-off of 30 kDa. Enzyme was aliquoted and stored at −80° C.
IKKβ kinase activity was measured using a biotinylated IκBα peptide (Gly-Leu-Lys-Lys-Glu-Arg-Leu-Leu-Asp-Asp-Arg-His-Asp-Ser32-Gly-Leu-Asp-Ser36-Met-Lys-Asp-Glu-Glu) (American Peptide Co.). […] contained 5 μM biotinylated IκBα peptide, 0.1 μCi/reaction [γ-^33P] ATP (Amersham) (about 1×10^5 cpm), 1 μM ATP (Sigma), 1 mM DTT (Sigma), 2 mM MgCl2 (Sigma), 2 mM MnCl2 (Sigma), 10 mM NaF (Sigma), 25 mM Hepes (Sigma) buffer, pH 7.6 and 20 μl enzyme solution and […] inhibitor in a final volume of 50 μl. After incubation at 25° C. for 30 min, 150 μl resin (Dowex anion-exchange resin AG1X8 200-400 mesh) in 900 mM formate, pH 3.0 was added to each well to stop the reaction. Resin was allowed to settle for one hour and 50 ul of supernatant was removed to a Micolite-2 flat bottom plate (Dynex). 150 μl of scintillation fluid (Microscint 40) (Packard) was added to each well. Incorporation of [γ-^33P] ATP was measured using a Top-Count NXT (Packard).

| IC50 [nM] | SMILES |
| --- | --- |
| ≤ 1000 | CS(=O)(=O)c1ccc(-n2nc(C(N)=O)c3ccc4ccc(NC(=O)c5cccc(Cl)c5Cl)cc4c32)cc1 [Example 40, 8-[(2,3-dichlorobenzoyl)amino]-1-[4-(methylsulfonyl)phenyl]-1H-benzo[g]indazole-3-carboxamide] |
| 1000 to 10000 | CS(=O)(=O)c1ccc(-n2nc(C(N)=O)c3ccc4ccc(NC(=O)c5ccccc5C(F)(F)F)cc4c32)cc1 [Example 39, 1-[4-(methylsulfonyl)phenyl]-8-{[2-(trifluoromethyl)benzoyl]amino}-1H-benzo[g]indazole-3-carboxamide] |

Same assay, conditions: Table 3; read-out: IKK2 Resin IC 50

| IC50 [nM] | SMILES |
| --- | --- |
| 1000 to 10000 | NC(=O)c1nn(-c2ccc(F)cc2)c2c1ccc1ccc(NC(=O)c3ccccc3Cl)cc12 [Example 47, 8-[(2-chlorobenzoyl)amino]-1-(4-fluorophenyl)-1H-benzo[g]indazole-3-carboxamide] |
| ≤ 1000 | CS(=O)(=O)Nc1ccc2ccc3c(C(N)=O)nn(-c4ccc(F)cc4)c3c2c1 [Example 50, 1-(4-fluorophenyl)-8-[(methylsulfonyl)amino]-1H-benzo[g]indazole-3-carboxamide] |
| ≤ 1000 | NC(=O)c1nn(-c2ccc(F)cc2)c2c1ccc1ccc(NC(=O)c3cccnc3Cl)cc12 [Example 51, 8-{[(2-chloropyridin-3-yl)carbonyl]amino}-1-(4-fluorophenyl)-1H-benzo[g]indazole-3-carboxamide] |

Same assay, conditions: Table 4; values given as bins; read-out: IKK2 Resin IC 50

| IC50 [nM] | SMILES |
| --- | --- |
| ≤ 1000 | NC(=O)c1nn(-c2ccc3c(c2)OCO3)c2c1cc(Br)c1ccc(NC(=O)c3cccnc3Cl)cc12 [Example 57, 1-(1,3-benzodioxol-5-yl)-5-bromo-8-{[(2-chloropyridin-3-yl)carbonyl]amino}-1H-benzo[g]indazole-3-carboxamide] |

These compounds were tested against T2, rhIKK1/IKK2 heterodimer (Homo sapiens, UniProt O14920+O15111) (assay: IKK Heterodimer Resin Enzyme Assay). Conditions: Table 1; values given as bins; read-out: HetD (IKK heterodimer assay values expressed as IC50).
T2 construct: made in house; host or cells: insect cells (baculovirus coinfection; SF9)
T2 sequence (O14920 1-756): T1 sequence (O14920 1-756)
T2 sequence (O15111 1-745): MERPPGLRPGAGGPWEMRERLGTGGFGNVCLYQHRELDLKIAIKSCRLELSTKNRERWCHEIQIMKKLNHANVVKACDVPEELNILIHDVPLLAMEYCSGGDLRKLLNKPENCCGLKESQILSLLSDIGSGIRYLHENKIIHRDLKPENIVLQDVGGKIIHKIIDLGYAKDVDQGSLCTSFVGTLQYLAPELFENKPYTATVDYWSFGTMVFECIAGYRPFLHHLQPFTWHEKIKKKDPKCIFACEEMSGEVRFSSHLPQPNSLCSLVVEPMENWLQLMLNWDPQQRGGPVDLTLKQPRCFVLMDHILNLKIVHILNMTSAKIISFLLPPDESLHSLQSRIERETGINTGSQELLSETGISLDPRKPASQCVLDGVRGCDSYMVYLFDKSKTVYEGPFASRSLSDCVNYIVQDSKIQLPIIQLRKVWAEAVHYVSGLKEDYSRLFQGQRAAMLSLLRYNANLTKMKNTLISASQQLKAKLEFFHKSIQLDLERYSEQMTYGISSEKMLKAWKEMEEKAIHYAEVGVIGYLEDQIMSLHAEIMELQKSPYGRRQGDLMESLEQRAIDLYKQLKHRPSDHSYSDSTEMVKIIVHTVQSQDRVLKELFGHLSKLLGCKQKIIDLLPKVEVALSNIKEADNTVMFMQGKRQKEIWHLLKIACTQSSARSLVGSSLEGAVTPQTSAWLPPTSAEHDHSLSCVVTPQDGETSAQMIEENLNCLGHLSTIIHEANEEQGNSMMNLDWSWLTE
Assay type: biochemical
Text: as §1, with “([…]).” for “(DYKDDDDKD).”
Isolation of rhIKK1/IKK2 Heterodimer
The heterodimer enzyme was produced by coinfection in a baculovirus system (FLAG IKK2/IKK1 His; MOI=0.1 and I=72 hrs). Infected cells were centrifuged and the cell pellet (10.0 g) was suspended in 50 ml of buffer A. The protein suspension was microfluidized and centrifuged at 100,000×g for 45 min. Imidazole was added to the supernatant to a final concentration of 10 mM. The protein was allowed to bind 25 ml of Ni-NTA resin by mixing for 2 hrs. The protein-resin slurry was poured into a 25 ml column and washed with 250 ml of buffer A containing 10 mM imidazole followed by 125 ml of buffer A containing 50 mM imidazole. Buffer A, containing 300 mM imidazole, was then used to elute the protein. A 75 ml pool was collected and NP-40 was added to a final concentration of 0.1%. […] The protein-resin slurry was then centrifuged for 5 min at 2,000 rpm. The supernatant was collected and the resin re-suspended in 100 ml of buffer C containing 0.1% NP-40. The resin was washed with 375 ml of buffer C containing 0.1% NP-40. The protein-resin was poured into a 25 ml column and the enzyme eluted using buffer B containing FLAG peptide. Enzyme fractions (100 ml) were collected and concentrated to 20 ml using an Amicon membrane with molecular weight cut-off of 30 kDa. Bovine serum albumin was added to the concentrated enzyme to final concentration of 0.1%. The enzyme was then aliquoted and stored at −80° C.
IKK Heterodimer Resin Enzyme Assay
Resin was allowed to settle for one hour and 50 ul of supernatant was removed to a Micolite-2 flat bottom plate (Dynex). 150 μl of scintillation fluid (Microscint 40) (Packard) was added to each well. Incorporation of [γ-^33P] ATP was measured using a Top-Count NXT (Packard).

| IC50 [nM] | SMILES |
| --- | --- |
| ≤ 1000 | NC(=O)c1nn(-c2ccc(S(N)(=O)=O)cc2)c2c1ccc1ccc(NC(=O)c3ccccc3F)cc12 [Example 31, 1-[4-(aminosulfonyl)phenyl]-8-[(2-fluorobenzoyl)amino]-1H-benzo[g]indazole-3-carboxamide] |
| ≤ 1000 | CC(=O)Nc1ccc2ccc3c(C(N)=O)nn(-c4ccc(S(N)(=O)=O)cc4)c3c2c1 [Example 20, 8-(acetylamino)-1-[4-(aminosulfonyl)phenyl]-1H-benzo[g]indazole-3-carboxamide] |
| 10000 to 100000 | Cc1cccc(S(=O)(=O)Nc2ccc3ccc4c(C(N)=O)nn(-c5ccc(S(N)(=O)=O)cc5)c4c3c2)c1 [Example 18, 1-[4-(aminosulfonyl)phenyl]-8-{[(3-methylphenyl)sulfonyl]amino}-1H-benzo[g]indazole-3-carboxamide] |

The next lines start with the compound.

| SMILES | IC50 [nM] |
| --- | --- |
| NC(=O)c1nn(-c2ccc(S(N)(=O)=O)cc2)c2c1ccc1ccc(NS(=O)(=O)c3ccc(Cl)c(Cl)c3)cc12 [Example 22, 1-[4-(aminosulfonyl)phenyl]-8-{[(3,4-dichlorophenyl)sulfonyl]amino}-1H-benzo[g]indazole-3-carboxamide] | 1000 to 10000 |
| NC(=O)c1nn(-c2ccc(S(N)(=O)=O)cc2)c2c1ccc1ccc(NC(=O)c3ccccc3OC(F)(F)F)cc12 [Example 29] | ≤ 1000 |
| NC(=O)c1nn(-c2ccc(S(N)(=O)=O)cc2)c2c1ccc1ccc(NS(=O)(=O)c3ccccc3Cl)cc12 [Example 33, 1-[4-(aminosulfonyl)phenyl]-8-{[(2-chlorophenyl)sufonyl]amino}-1H-benzo[g]indazole-3-carboxamide] | 1000 to 10000 |
| NC(=O)c1nn(-c2ccc(S(N)(=O)=O)cc2)c2c1ccc1ccc(NC(=O)c3ccccc3C(F)(F)F)cc12 [Example 26, 1-[4-(aminosulfonyl)phenyl]-8-{[2-(trifluoromethyl)benzoyl]amino}-1H-benzo[g]indazole-3-carboxamide] | ≤ 1000 |
| COc1cccc(C(=O)Nc2ccc3ccc4c(C(N)=O)nn(-c5ccc(S(N)(=O)=O)cc5)c4c3c2)c1 [Example 8, 1-[4-(aminosulfonyl)phenyl]-8-[(3-methoxybenzoyl)amino]-1H-benzo[g]indazole-3-carboxamide] | ≤ 1000 |
